Source: the supplement of paper PMC8253809

Experiments:
HGGX6 [1] = H3.3 G34R paediatric high-grade glioma line; assay: EC50 (inflection of fitted growth-inhibition curve) (log10 M)
Procedure, shortened: (§1)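 A pin tool was used to add a 10-point threefold dilution series (mean top concentration 35 μM), in triplicate, to patient-derived pHGG/DIPG cell lines and astrocyte controls seeded on 384-well plates coated with 1% Geltrex. After 7 days at 37 °C and 5% CO2 (3 days for iAstro), CellTiter-Glo luminescence was log2-transformed, normalised on each plate to % activity relative to negative (solvent) and positive control wells, and pooled. EC50 and maximal response (yFin) were read from the three- or four-parameter log-logistic fit with the lowest AICc.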

HGGX39 [2] = paediatric high-grade glioma line; assay: as above
Procedure, shortened: as §1

HGGX6 [3] = assay: maximal growth inhibition (yFin) relative to DMSO / staurosporine; higher = more efficacious
Procedure, shortened: as §1

HGGX39 [4] = assay: as above
Procedure, shortened: as §1

HGGX6 [5] = assay: area under dose-response curve of % growth inhibition (log2 RLU vs DMSO / staurosporine), 1e-11 to 1e-4 M (% x log10 M); higher = more growth inhibition
Procedure, shortened: (§2)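 A 10-point threefold dilution series, mean top concentration 35 μM, was applied in triplicate to patient-derived pHGG/DIPG lines and astrocytes on 1% Geltrex-coated 384-well plates for 7 days (3 days for iAstro) at 37 °C, 5% CO2. Per-plate % activity between solvent and positive controls was calculated from log2-transformed CellTiter-Glo luminescence. Area under the curve followed from the trapezoid rule on a log-logistic fit, or on a smoothing spline when the sigmoid fit failed.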

HGGX39 [6] = assay: as above
Procedure, shortened: as §2

DIPGX29 = H3.3 K27M diffuse intrinsic pontine glioma line; assay: as above
Procedure, shortened: as §2

DIPGX37 [7] = H3.3 K27M diffuse intrinsic pontine glioma line; assay: as above
Procedure, shortened: as §2

DIPGX37 [8] = assay: EC50 (inflection of fitted growth-inhibition curve) (log10 M)
Procedure, shortened: as §1

DIPGX37 [9] = assay: maximal growth inhibition (yFin) relative to DMSO / staurosporine; higher = more efficacious
Procedure, shortened: as §1

Structure (SMILES) | EC50 (log10 M) (HGGX6 [1]) | EC50 (log10 M) (HGGX39 [2]) | maximal growth inhibition (HGGX6 [3]) | maximal growth inhibition (HGGX39 [4]) | area under dose-response curve (HGGX6 [5]) | area under dose-response curve (HGGX39 [6]) | area under dose-response curve (DIPGX29) | area under dose-response curve (DIPGX37 [7]) | EC50 (log10 M) (DIPGX37 [8]) | maximal growth inhibition (DIPGX37 [9])
Cc1ccc(C(=O)Nc2ccc(Oc3cc4cnn(C)c4cc3-c3cn[nH]c3)c(F)c2)c(=O)n1-c1ccc(F)cc1 | -5.1 | -5.27 | 25.3% | 20.9% | 41.1 | 28.1 | 22.4 | 16.1 | – | –
Nc1nccc(-c2c(-c3ccc(F)cc3)ncn2C2CCCCC2)n1 | -4.94 | – | 21% | – | 31.7 | 21.3 | 16.4 | 21.5 | – | –
CC(=O)OC12COC1CC(O)C1(C)C(=O)C(O)C3=C(C)C(O)CC(O)(C(OC(=O)c4ccccc4)C21)C3(C)C (configuration not stated) [10-DEACETYLBACCATIN-III] | – | -5.19 | – | 39.6% | 14.9 | 47.3 | 13.6 | 28.9 | -4.92 | 31.4%
Clc1cc2c(NC3CCCC3)nnc(-c3ccncc3)c2cc1Cl [A-196] | – | – | – | – | 3.18 | 2.32 | 2.12 | 18.8 | -4.53 | 23.4%
COc1cc(Nc2ncc3c(n2)-c2ccc(Cl)cc2C(c2c(F)cccc2OC)=NC3)ccc1C(=O)O [ALISERTIB] | -5.31 | -4.99 | 24.7% | 39.1% | 49.8 | 69.3 | 52.1 | 66.4 | – | –
C[C@@H]1CC[C@H]2[C@@H](C)C(=O)O[C@@H]3O[C@@]4(C)CC[C@@H]1[C@]32OO4 [ARTEMISININ] | – | -5.38 | – | 29.7% | 20.9 | 36.8 | 19.7 | 42.5 | -5.3 | 32.7%
C[C@H]1[C@H](OC(=O)CCC(=O)O)O[C@@H]2O[C@@]3(C)CC[C@H]4[C@H](C)CC[C@@H]1[C@@]24OO3 [ARTESUNATE] | -5.03 | -4.94 | 22.2% | 32.5% | 23.5 | 29 | 8.84 | 9.88 | – | –
c1ccc(-c2ccc(C(c3ccccc3)n3ccnc3)cc2)cc1 (configuration not stated) [BIFONAZOLE] | -4.81 | – | 20.1% | – | 16.4 | 30.5 | 17.3 | 31.9 | -4.75 | 42.4%
Cc1c(N)nc([C@H](CC(N)=O)NC[C@H](N)C(N)=O)nc1C(=O)N[C@H](C(=O)N[C@H](C)[C@@H](O)[C@H](C)C(=O)N[C@H](C(=O)NCCc1nc(-c2nc(C(=O)NCCC[S+](C)C)cs2)cs1)[C@@H](C)O)[C@@H](OC1OC(CO)C(O)C(O)C1OC1OC(CO)C(O)C(OC(N)=O)C1O)c1cnc[nH]1 (some centres not stated) [BLEOMYCIN] | – | – | – | – | 6.9 | 19.5 | 22.6 | 40.4 | -5.22 | 24.8%
COc1cc2nccc(Oc3ccc(NC(=O)C4(C(=O)Nc5ccc(F)cc5)CC4)cc3)c2cc1OC [CABOZANTINIB] | -4.79 | -4.62 | 27.1% | 60.2% | 33 | 37.5 | 10.6 | 12.8 | – | –
C/C=C(\C)C(=O)N[C@@H](c1ccccc1)[C@@H](O)C(=O)O[C@H]1C[C@@]2(O)[C@@H](OC(=O)c3ccccc3)[C@@H]3[C@]4(OC(C)=O)CO[C@@H]4C[C@H](O)[C@@]3(C)C(=O)[C@H](OC(C)=O)C(=C1C)C2(C)C [CEPHALOMANNINE] | – | -7.73 | – | 48.4% | 54.1 | 180 | 46.7 | 101 | -7.58 | 28.2%
Nc1nc(Cl)nc2c1ncn2[C@@H]1O[C@H](CO)[C@@H](O)[C@@H]1F [CLOFARABINE] | -5.65 | – | 22.7% | – | 40.9 | 44.4 | 52.4 | 47 | -5.4 | 28.4%
Cc1sc2c(c1C)C(c1ccc(Cl)cc1)=N[C@@H](CC(N)=O)c1nnc(C)n1-2 [CPI-203] | – | – | – | – | 35.8 | 47.1 | 26.8 | 62.1 | -6.88 | 22.3%
CC(C)n1c(/C=C/C(O)CC(O)CC(=O)O)c(-c2ccc(F)cc2)c2ccccc21 (configuration not stated) [FLUVASTATIN] | -5.92 | -6.08 | 26.8% | 23.9% | 54 | 51.2 | 25.5 | 1.43 | – | –
CCc1c2c(nc3ccc(OC(=O)N4CCC(N5CCCCC5)CC4)cc13)-c1cc3c(c(=O)n1C2)COC(=O)[C@]3(O)CC [IRINOTECAN] | – | -5.98 | – | 53.2% | 25.9 | 107 | 52.4 | 56.4 | -7.09 | 20.5%
CCC(C)n1ncn(-c2ccc(N3CCN(c4ccc(OCC5COC(Cn6cncn6)(c6ccc(Cl)cc6Cl)O5)cc4)CC3)cc2)c1=O (configuration not stated) [ITRACONAZOLE] | – | – | – | – | 29.7 | 28.4 | 20 | 56.7 | -4.91 | 62.3%
N[C@@H](Cc1cc(I)c(Oc2ccc(O)c(I)c2)c(I)c1)C(=O)O [LIOTHYRONINE] | – | -5.95 | – | 26.4% | 11.9 | 51.4 | 31.4 | 62.2 | -5.69 | 26.5%
Cc1cc(=O)n(C)c2cc(N3C(=O)CC[C@H](NS(=O)(=O)CC(C)C)[C@H]3c3ccc(Cl)cc3)ccc12 [LP-99] | -4.95 | – | 22.4% | – | 21.2 | 11.5 | 12.9 | 10.2 | – | –
